Experimental data published in PubChem BioAssay AID2060506 (Molecular Pharmacology Branch, DTP, NCI, 2025).

System: 598228-144-R-J1-PDC complex spheroid viability
Test: Anticancer human tumor 598228-144-R-J1-PDC patient-derived serous endometrial adenocarcinoma cell line growth inhibition [GQUAD]
Conditions: for IC50: curve of first compound; for viability, T/C: stronger effect = lower value
How it was run: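 Viability of tumor cells grown as complex spheroids with endothelial and stromal cells, exposed to drug combinations. Top concentration at or near clinical Cmax (else 10 microM), diluted in half-log increments.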

[1] = second compound 0.0316 µM, first compound 0.0316 µM
[2] = second compound 0.0316 µM, first compound 0.1 µM
[3] = second compound 0.0316 µM, first compound 0.316 µM
[4] = second compound 0.0316 µM, first compound 1 µM
[5] = second compound 0.0316 µM, first compound 3.16 µM
[6] = second compound 0.0316 µM, first compound 10 µM
[7] = second compound 0.1 µM, first compound 0.0316 µM
[8] = second compound 0.1 µM, first compound 0.1 µM
[9] = second compound 0.1 µM, first compound 0.316 µM
[10] = second compound 0.1 µM, first compound 1 µM
[11] = second compound 0.1 µM, first compound 3.16 µM
[12] = second compound 0.1 µM, first compound 10 µM
[13] = second compound 0.316 µM, first compound 0.0316 µM
[14] = second compound 0.316 µM, first compound 0.1 µM
[15] = second compound 0.316 µM, first compound 0.316 µM
[16] = second compound 0.316 µM, first compound 1 µM
[17] = second compound 0.316 µM, first compound 3.16 µM
[18] = second compound 0.316 µM, first compound 10 µM
[19] = second compound 1 µM, first compound 0.0316 µM
[20] = second compound 1 µM, first compound 0.1 µM
[21] = second compound 1 µM, first compound 0.316 µM
[22] = second compound 1 µM, first compound 1 µM
[23] = second compound 1 µM, first compound 3.16 µM
[24] = second compound 1 µM, first compound 10 µM
[25] = second compound 3.16 µM, first compound 0.0316 µM
[26] = second compound 3.16 µM, first compound 0.1 µM
[27] = second compound 3.16 µM, first compound 0.316 µM
[28] = second compound 3.16 µM, first compound 1 µM
[29] = second compound 3.16 µM, first compound 3.16 µM
[30] = second compound 3.16 µM, first compound 10 µM
[31] = second compound 10 µM, first compound 0.0316 µM
[32] = second compound 10 µM, first compound 0.1 µM
[33] = second compound 10 µM, first compound 0.316 µM
[34] = second compound 10 µM, first compound 1 µM
[35] = second compound 10 µM, first compound 3.16 µM
[36] = second compound 10 µM, first compound 10 µM
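Note: spheroids exposed to the agents for one week before reading.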
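Throughout, for viability, T/C: percent of vehicle DMSO control viability so 100% = untreated growth.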

With `C=CC(=O)N1CCN(c2nc(=O)n(-c3c(C)ccnc3C(C)C)c3nc(-c4c(O)cccc4F)c(F)cc23)C(C)C1` (centres undefined) + CN(C)c1ccc(Nc2c3ccc(NC(=O)CCN4CCCC4)cc3nc3cc(NC(=O)CCN4CCCC4)ccc23)cc1 the IC50 (second compound 0.0316 µM) was > 10000 nM, the IC50 (second compound 0.1 µM) was > 10000 nM and the IC50 (second compound 0.316 µM) was > 10000 nM. For the same compound, the IC50 (second compound 1 µM) was > 10000 nM, the IC50 (second compound 3.16 µM) was > 10000 nM and the IC50 (second compound 10 µM) was > 10000 nM. It also gave a viability, T/C [1] of 94.4%, a viability, T/C [2] of 105% and a viability, T/C [3] of 101%. The viability, T/C [4] was 120%, the viability, T/C [5] was 122% and the viability, T/C [6] was 122%. For the same compound, the viability, T/C [7] was 93.6%, the viability, T/C [8] was 103% and the viability, T/C [9] was 122%. The viability, T/C [10] was 122%, the viability, T/C [11] was 119% and the viability, T/C [12] was 109%. It also gave a viability, T/C [13] of 97.8%, a viability, T/C [14] of 112% and a viability, T/C [15] of 105%. It also gave a viability, T/C [16] of 123%, a viability, T/C [17] of 140% and a viability, T/C [18] of 110%. The viability, T/C [19] was 80.8%, the viability, T/C [20] was 105% and the viability, T/C [21] was 103%. The viability, T/C [22] was 121%, the viability, T/C [23] was 135% and the viability, T/C [24] was 93.8%. It also gave a viability, T/C [25] of 93.5%, a viability, T/C [26] of 111% and a viability, T/C [27] of 114%. For the same compound, the viability, T/C [28] was 117%, the viability, T/C [29] was 132% and the viability, T/C [30] was 121%. For the same compound, the viability, T/C [31] was 79.6%, the viability, T/C [32] was 85.5% and the viability, T/C [33] was 115%. The viability, T/C [34] was 115%, the viability, T/C [35] was 124% and the viability, T/C [36] was 73%.

For `CC1COCCN1c1cc(-c2ccnn2C)c2ccnc(-c3ccn[nH]3)c2n1` (centres undefined) + Cc1[nH]c2ccc(F)cc2c1-c1nc2c3cccnc3c3ncccc3c2[nH]1, the IC50 (second compound 0.0316 µM) was 209 nM, the IC50 (second compound 0.1 µM) was 221 nM and the IC50 (second compound 0.316 µM) was 78.2 nM. The IC50 (second compound 1 µM) was < 31.6 nM, the IC50 (second compound 3.16 µM) was < 31.6 nM and the IC50 (second compound 10 µM) was < 31.6 nM. The viability, T/C [1] was 92.4%, the viability, T/C [2] was 63.8% and the viability, T/C [3] was 41.3%. For the same compound, the viability, T/C [4] was 43.3%, the viability, T/C [5] was 37.2% and the viability, T/C [6] was 36%. For the same compound, the viability, T/C [7] was 71.1%, the viability, T/C [8] was 55.7% and the viability, T/C [9] was 41.6%. The viability, T/C [10] was 50.2%, the viability, T/C [11] was 52.6% and the viability, T/C [12] was 44%. For the same compound, the viability, T/C [13] was 59%, the viability, T/C [14] was 47.7% and the viability, T/C [15] was 45.7%. It also gave a viability, T/C [16] of 47.2%, a viability, T/C [17] of 43.9% and a viability, T/C [18] of 49.1%. For the same compound, the viability, T/C [19] was 44.3%, the viability, T/C [20] was 41.5% and the viability, T/C [21] was 37.6%. For the same compound, the viability, T/C [22] was 41.8%, the viability, T/C [23] was 45.1% and the viability, T/C [24] was 36.5%. It also gave a viability, T/C [25] of 36.9%, a viability, T/C [26] of 36.9% and a viability, T/C [27] of 39.7%. It also gave a viability, T/C [28] of 30.7%, a viability, T/C [29] of 24.9% and a viability, T/C [30] of 22.4%. It also gave a viability, T/C [31] of 47%, a viability, T/C [32] of 42.7% and a viability, T/C [33] of 41.4%. The viability, T/C [34] was 36.8%, the viability, T/C [35] was 44.1% and the viability, T/C [36] was 36.5%.
